# In PMC11403616, “Arcopilins: A New Family of Staphylococcus aureus Biofilm Disruptors from the Soil Fungus Arcopilus navicularis” (Journal of Medicinal Chemistry, 2024):
# “Also recorded” adds a separate entry of the source. Marks after values point to notes of the source that are not given here.
# What was measured:
# B. subtilis DSM 10 = assay: MIC against bacteria (antimicrobial assay); type: cell-based, Bacillus subtilis
# Method: (§1) The antimicrobial activities of compounds 1–7 (Acp A–G) were assessed against different bacterial and fungal strains in addition to their cytotoxic effects on two mammalian cell lines. The tested microorganisms comprised a diverse array of clinically relevant pathogens, encompassing sensitive indicator strains. Among the Gram-positive bacteria were Bacillus subtilis, Staphylococcus aureus, and Mycolicibacterium smegmatis. Gram-negative bacteria included Acinetobacter baumannii, Chromobacterium violaceum, Escherichia coli, and Pseudomonas aeruginosa. Additionally, filamentous fungi such as Mucor hiemalis and yeasts including Candida albicans, Wickerhamomyces anomalus, Rhodotorula glutinis, and Schizosaccharomyces pombe were included. Generally, all compounds presented similar biological properties, summarized in weak or no activity against fungal pathogens as well as weak to moderate inhibition of Gram-positive bacteria (Table 2).
# (§2) The antimicrobial and cytotoxic assays were performed according to the methods reported previously.[57]
# S. aureus DSM 346 = assay: MIC against bacteria (antimicrobial assay); type: cell-based, Staphylococcus aureus; details: for MIC: Staphylococcus aureus, DSM346, DSM 346, – = no activity observed under test conditions
# Method: as §1, §2
# S. aureus DSM 1104 = assay: MIC against bacteria (antimicrobial assay); type: cell-based, Staphylococcus aureus
# Description: The tested microorganisms comprised a diverse array of clinically relevant pathogens, encompassing sensitive indicator strains. Among the Gram-positive bacteria were Bacillus subtilis, Staphylococcus aureus, and Mycolicibacterium smegmatis. Gram-negative bacteria included Acinetobacter baumannii, Chromobacterium violaceum, Escherichia coli, and Pseudomonas aeruginosa. Additionally, filamentous fungi such as Mucor hiemalis and yeasts including Candida albicans, Wickerhamomyces anomalus, Rhodotorula glutinis, and Schizosaccharomyces pombe were included.
# as §2
# S. pombe DSM 70572 = assay: MIC against fungi (antimicrobial assay); type: cell-based, Schizosaccharomyces pombe
# Method: as §1, §2
# C. albicans DSM 1665 = assay: MIC against fungi (antimicrobial assay); type: cell-based, Candida albicans
# Method: as §1, §2
# M. hiemalis DSM 2656 = assay: MIC against fungi (antimicrobial assay); type: cell-based, Mucor hiemalis
# Method: as §1, §2
# KB-3-1 (ACC 158) = assay: Cytotoxicity against mammalian cell lines; type: cell-based; details: Homo sapiens, KB 3-1; ACC 158; – = no activity observed under test conditions; read-out: IC50 against mammalian cell lines, KB-3-1
# Method: as §1, §2
# L929 (ACC 2) = assay: Cytotoxicity against mammalian cell lines; type: cell-based; details: Mus musculus, L929; ACC 2; – = no activity observed under test conditions; read-out: IC50 against mammalian cell lines, L929
# Method: as §1, §2
# [1] = tested on: preformed biofilms of S. aureus DSM 1104; assay: Disruption of preformed biofilms, crystal violet assay; type: cell-based, Staphylococcus aureus
# Method: Therefore, Acp A–G were evaluated against preformed biofilms of S. aureus using crystal violet staining.[47]
# Cultures of S. aureus DSM 1104 were prepared by inoculating 1 mL aliquots from a frozen stock (−20 °C) into 25 mL of CASO medium and incubating them overnight at 37 °C with shaking at 130 rpm.
# The crystal violet assay was performed according to a previously reported procedure.[47] Arcopilins A–G were tested in serial dilutions (250–2 μg/mL), with methanol and microporenic acid A (MAA) as negative and positive controls, respectively. Statistical differences between samples and the controls were determined using a two-tailed Student’s t test, with statistical significance defined as p < 0.01. Statistical analysis was carried out using GraphPad Prism 9 (GraphPad Software, San Diego, CA).[58]
# [2] = tested on: preformed biofilm cells of S. aureus DSM 1104; assay: XTT assay, metabolic activity in preformed biofilm cells; type: cell-based, Staphylococcus aureus; details: 24 h treatment
# Method: The seed culture of S. aureus DSM 1104 was prepared as previously described, and its OD600 was adjusted to match the turbidity of a 0.001 McFarland standard. Next, 150 μL of this bacterial solution in CASO with 4% glucose broth was incubated in 96-well tissue plates (TPP tissue culture ref no. 92196, Switzerland) for 24 h at 150 rpm. After incubation, the supernatant was discarded and 150 μL of the fresh media was added to the wells, along with serially diluted arcopilin A (31.3–0.5 μg/mL). The plate was further incubated for 24 h. Afterward, XTT (Cell profile XTT kit, Roche, Switzerland) was prepared in phosphate-buffered saline (PBS) at a final concentration of 0.3 mg/mL. The plate was washed three times with PBS buffer, and then, 150 μL of the prepared XTT solution was added to each well. Plates were further incubated for an additional 4 h at 37 °C while shaking (150 rpm), and absorbance was measured at 490 nm using a plate reader (Synergy 2, BioTek, Santa Clara). Methanol (2.5%) was used as the solvent control. Error bars indicate the standard deviation (SD) of duplicate with two repeats.
# [3] = tested on: planktonic cells of S. aureus DSM 1104; assay: Checkerboard broth dilution assay (FICI); type: cell-based, Staphylococcus aureus; details: for MIC: Staphylococcus aureus, DSM1104, compound alone, read-out: MIC of each single compound (MICs)
# Description: After assessing the effects of Acp A on the pathogen S. aureus, we delved deeper into the interaction of Acp A with established antibiotics (GM and Vac). This exploration focused on both planktonic cells and preformed biofilms of S. aureus. Consequently, we used a checkerboard assay to determine the fractional inhibitory concentration index (FICI) for combinations involving Acp A, GM, or Vac based on both their MIC values in combination.[49]
# The interaction between arcopilin A, vancomycin, and gentamicin against S. aureus DSM 1104 was evaluated using a checkerboard broth dilution method to determine the fractional inhibitory concentration indices (FICIs), calculated as FIC = MIC of drug A in combination/MIC of drug A alone + MIC of drug B in combination/MIC of drug B alone.[59] The FICIs were interpreted as synergistic (FICI ≤ 0.5). For this assay, a seed culture was prepared as previously described to inoculate fresh CASO with 4% glucose broth to match the turbidity of a 0.1 McFarland standard suspension. Then, 100 μL of bacterial suspension was distributed in 96-well nontissue microtiter plates (TPP nontissue culture ref no. 92197, Switzerland). Arcopilin A (7.8–2 μg/mL) and antibiotics (vancomycin and gentamicin: 31.3–0.016 μg/mL) were added in increasing concentrations in columns and rows, respectively. The experiments were conducted in duplicate.
# C. violaceum DSM 30191 = assay: MIC against bacteria (antimicrobial assay); type: cell-based; details: Chromobacterium violaceum, DSM30191, – = no activity observed under test conditions
# Method: as §1, §2
# E. coli DSM 1116 = assay: MIC against bacteria (antimicrobial assay); type: cell-based; details: Escherichia coli, DSM1116, – = no activity observed under test conditions
# Method: as §1, §2
# [4] = tested on: preformed biofilms of S. aureus DSM 1104; assay: CFU count analysis, synergistic effects on preformed biofilms; type: cell-based, Staphylococcus aureus; details: Acp A 7.8–3.9 μg/mL, GM 7.8–2 μg/mL, Vac 15.6–3.9 μg/mL
# Method: The seed culture of S. aureus DSM 1104 was prepared as previously described, and the OD600 was adjusted to match the turbidity of a 0.001 McFarland standard. Then, 150 μL of bacterial solution in CASO with 4% glucose broth was incubated in 96-well tissue plates (TPP tissue culture ref no. 92196, Switzerland) for 24 h at 150 rpm. […] Methanol (2.5%) was used as the solvent control. The plates were incubated for a further 24 h at 37 °C. Colony-forming unit (CFU) count analysis of arcopilin A, antibiotics (vancomycin and gentamicin), and their combinations was performed as previously described.[58] Cells were suspended in the well 50 times. Dilution series in 1 to 10 steps (20 μL in 200 μL) were prepared down to a final dilution level of 10^–6, and 100 μL of this last dilution was platted on LB agar plates using 3 mm small glass beads (5 to 10, Omnilab, Germany) to homogeneously spread the liquid. Individual colonies on agar plates were counted after incubation at 30 °C for 24 and 48 h.[60] Afterward, CFUs were calculated by considering the dilution factors. Error bars indicate the SD of duplicate with two repeats.
# W. anomalus DSM 6766 = assay: MIC against fungi (antimicrobial assay); type: cell-based, Wickerhamomyces anomalus; details: – = no activity observed under test conditions
# Method: as §1, §2
# R. glutinis DSM 10134 = assay: MIC against fungi (antimicrobial assay); type: cell-based, Rhodotorula glutinis; details: – = no activity observed under test conditions
# Method: as §1, §2
# [5] = supplement CSV, decimal comma, unit not given, in µg/mL
smiles,measurement,setting,value
"CC(=O)[C@H](C)C[C@@H](C)C[C@H](C)C(=O)C1=C(O)/C(=C/c2ccccc2)NC1=O [Acp A, Arcopilin A]",MIC,"B. subtilis DSM 10; Bacillus subtilis, DSM10, DSM 10, – = no activity observed under test conditions",66.7 µg/mL
same,MIC B. subtilis,B. subtilis DSM 10; [5],"66,7"
same,MIC,S. aureus DSM 346,66.7 µg/mL
same,MIC S. aureus,"S. aureus DSM 346; supplement CSV, S. aureus, decimal comma, unit not given, in µg/mL","66,7"
same,MIC,"S. aureus DSM 1104; Staphylococcus aureus, DSM1104, DSM 1104",31.3 µg/mL
same,MIC S. aureus,"S. aureus DSM 1104; supplement CSV, second S. aureus column (value matches DSM 1104 of Table 2), decimal comma, unit not given, in µg/mL","31,3"
same,MIC,"S. pombe DSM 70572; Schizosaccharomyces pombe, DSM70572, DSM 70572, – = no activity observed under test conditions",66.7 µg/mL
same,MIC S. pombe,S. pombe DSM 70572; [5],"66,7"
same,MIC,"C. albicans DSM 1665; Candida albicans, DSM1665, DSM 1665, – = no activity observed under test conditions",66.7 µg/mL
same,MIC C. albicans,C. albicans DSM 1665; [5],"66,7"
same,MIC,"M. hiemalis DSM 2656; Mucor hiemalis, DSM2656, DSM 2656, – = no activity observed under test conditions",66.7 µg/mL
same,MIC M. hiemalis,M. hiemalis DSM 2656; [5],"66,7"
same,IC50,KB-3-1 (ACC 158),8.9 µg/mL
same,IC50,L929 (ACC 2),14 µg/mL
same,efficacy toward preformed biofilms,[1]; at 3.9 μg/mL,35–45%
same,efficacy toward preformed biofilms,[1]; concentration range 15.6 to 250 μg/mL,50–60%
same,disrupting effect on preformed biofilms (in words),[1]; tested 250–2 μg/mL,most promising disrupting effects; also recorded: remarkable effectiveness
same,lowest concentration with significant reduction in metabolic activity,[2],3.9 µg/mL
same,MIC,[3],31.3 µg/mL
same,decrease of the MIC value when combined with each antibiotic,[3]; combined with GM or Vac,~10 fold
CNC(C)C1CCC(N)C(OC2C(N)CC(N)C(OC3OCC(C)(O)C(NC)C3O)C2O)O1 (stereo not drawn) [Gentamicin],MIC,S. aureus DSM 346,0.4 µg/mL
same,MIC,C. violaceum DSM 30191,0.42 µg/mL
same,MIC,E. coli DSM 1116,1.7 µg/mL
same,increase of the potency of the antibiotic in combination with Acp A,"[3]; Acp A 3.9 μg/mL, MIC alone versus in combination",up to 115 fold
same,"FICI, Acp A and GM","[3]; FICI < 0.5: synergistic, value belongs to the combination",< 0.5
same,MIC,[3],15.6 µg/mL
same,"MIC in combination (MICc), Acp A and GM",[3]; combination of Acp A (3.9 μg/mL) with GM,0.13 µg/mL
same,improvement in the inhibitory effects in combination with Acp A,[4],~3 fold
"C[C@@H]1[C@H](O)[C@@H](C)/C=C/C=C/CC/C=C/C=C/C=C/C=C/C(O[C@H]2O[C@H](C)[C@@H](O)[C@H](N)[C@@H]2O)CC2O[C@](O)(CC(O)C(O)CCC(O)CC(O)CC(O)CC(=O)O[C@H]1C)CC(O)C2C(=O)O (stereo partly drawn) [Nystatin, reference compound]","MIC against fungi, W. anomalus",W. anomalus DSM 6766,8.3^e μg/mL
same,"MIC against fungi, S. pombe","S. pombe DSM 70572; DSM 70572, – = no activity observed under test conditions",4.2^e μg/mL
same,"MIC against fungi, C. albicans","C. albicans DSM 1665; DSM 1665, – = no activity observed under test conditions",8.3^e μg/mL
same,"MIC against fungi, M. hiemalis","M. hiemalis DSM 2656; DSM 2656, – = no activity observed under test conditions",8.3^e μg/mL
same,"MIC against fungi, R. glutinis",R. glutinis DSM 10134,4.2^e μg/mL
